Values after ≈ are worked out from the molar mass of the structure shown.
What was measured:
Assay type in all cases: functional
Enterococcus faecium = assay: Antibacterial activity against Vanomycin-resistant Enterococcus faecium assessed as bacterial growth inhibition by CLSI protocol agar-based assay
Acinetobacter baumannii = assay: Antibacterial activity against Acinetobacter baumannii IID876 assessed as bacterial growth inhibition by CLSI protocol agar-based assay
Streptococcus pneumoniae = assay: Antibacterial activity against Streptococcus pneumoniae IID553 assessed as bacterial growth inhibition by CLSI protocol agar-based assay
Pseudomonas aeruginosa = assay: Antibacterial activity against Pseudomonas aeruginosa PAO1 assessed as bacterial growth inhibition by CLSI protocol agar-based assay
Escherichia coli = assay: Antibacterial activity against Escherichia coli ATCC 25922 assessed as bacterial growth inhibition by CLSI protocol agar-based assay
Staphylococcus aureus = assay: Antibacterial activity against methicillin-resistant Staphylococcus aureus OITII-971 assessed as bacterial growth inhibition by CLSI protocol agar-based assay

| Structure (SMILES) | MIC (Enterococcus faecium) [µg/mL] | MIC (Acinetobacter baumannii) [µg/mL] | MIC (Streptococcus pneumoniae) [µg/mL] | MIC (Pseudomonas aeruginosa) [µg/mL] | MIC (Escherichia coli) [µg/mL] | MIC (Staphylococcus aureus) [µg/mL] |
| --- | --- | --- | --- | --- | --- | --- |
| COc1ccc2ncc(F)c(C[C@H](O)C34CCC(NCc5ccc6c(n5)NC(=O)CO6)(CC3)CO4)c2n1 | 0.5 (≈ 0.981 µM) | 0.5 (≈ 0.981 µM) | 0.05 (≈ 0.0981 µM) | 8 (≈ 15.7 µM) | 2 (≈ 3.93 µM) | 0.02 (≈ 0.0393 µM) |
| O=c1ccc2ncc(F)c(C[C@H](O)C34CCC(NC/C=C/c5cc(F)ccc5F)(CC3)CO4)c2n1CCO | 16 (≈ 30.2 µM) | 1 (≈ 1.89 µM) | 0.5 (≈ 0.944 µM) | 64 (≈ 121 µM) | 16 (≈ 30.2 µM) | 0.5 (≈ 0.944 µM) |
| O=c1ccc2ncc(F)c(CCC34CCC(NCc5cc(-c6cccs6)on5)(CC3)CO4)c2n1CCO | 64 (≈ 122 µM) | 128 (≈ 244 µM) | 4 (≈ 7.62 µM) | > 64 | > 128 | 4 (≈ 7.62 µM) |
| O=C1COc2ccc(CNC34CCC([C@@H](O)Cc5c(F)cnc6ccc(=O)n(CCO)c56)(CC3)OC4)nc2N1 | 2 (≈ 3.71 µM) | 4 (≈ 7.41 µM) | 0.125 (≈ 0.232 µM) | 16 (≈ 29.7 µM) | 32 (≈ 59.3 µM) | 0.031 (≈ 0.0575 µM) |
| O=c1ccc2ncc(F)c(CCC34CCC(NCc5cn(-c6ncccn6)cn5)(CC3)CO4)c2n1CCO | > 32 | > 32 | > 32 | > 128 | > 32 | > 32 |
| O=c1ccc2ncc(F)c(C[C@H](O)C34CCC(NCc5cc6c(cn5)OCCO6)(CC3)CO4)c2n1CCO | 32 (≈ 60.8 µM) | 64 (≈ 122 µM) | 2 (≈ 3.8 µM) | > 128 | 128 (≈ 243 µM) | 2 (≈ 3.8 µM) |

Source: ChEMBL document CHEMBL5223095, “Structure activity relationship of N-1 substituted 1,5-naphthyrid-2-one analogs of oxabicyclooctane-linked novel bacterial topoisomerase inhibitors as broad-spectrum antibacterial agents (Part-9)” (Bioorg Med Chem Lett, 2022)
